Literature values in patent US9084671B2, “Methods of forming a micronized peptide coated stent” (ABBOTT CARDIOVASCULAR SYSTEMS INC., priority 2002, dated 2015).

Conditions: stated as a property of the highly cationic guanidinium peptide; no method given

heptaarginine [heptamer of L-arginine]
pKa: 13.2
